Key:
[1] = tested on: Monocotyledonous and dicotyledonous test plants; test: Post-emergence herbicidal action, greenhouse pot test, sprayed at the 2- to 3-leaf stage, 9-level rating after 2 to 3 weeks; type: in vivo; design: key: 9-level scale: 1 = complete damage, 9 = no effect; conditions: 250 g/ha, rated after 2 to 3 weeks, 9-level scale
Description: Post-Emergence Herbicidal Action
Monocotyledonous and dicotyledonous test plants are grown in standard soil in pots. At the 2- to 3-leaf stage of the test plants, the test substances are sprayed at optimum dosage (500 l of water/ha) as an aqueous suspension (prepared from a wettable powder (example F3, b) according to WO 97/34485) or emulsion (prepared from an emulsion concentrate (example F1, c) according to WO 97/34485). The test plants are then grown further under optimum conditions in a greenhouse.
After a test period of 2 to 3 weeks, the test is evaluated using a 9-level scale of rating (1=complete damage, 9=no effect). Ratings of 1 to 4 (in particular 1 to 3) mean good to very good herbicidal action.

[2] = tested on: Monocotyledonous and dicotyledonous test plants; test: Herbicidal action before emergence of the plants (pre-emergence action), greenhouse pot test, 9-level rating after 4 weeks; type: in vivo; design: key: 9-level scale: 1 = complete damage, 9 = no effect; conditions: 250 g/ha, rated after 4 weeks, 9-level scale
Description: Herbicidal Action Before Emergence of the Plants (Pre-Emergence Action)
Monocotyledonous and dicotyledonous test plants are sown in standard soil in pots. Immediately after sowing, the test substances are sprayed on at an optimum dosage (500 l of water/ha) as an aqueous suspension (prepared from a wettable powder (example F3, b) according to WO 97/34485) or emulsion (prepared from an emulsion concentrate (example F1, c) according to WO 97/34485). The test plants are then grown under optimum conditions in a greenhouse.
After a test period of 4 weeks, the test is evaluated using a 9-level scale of ratings (1=complete damage, 9=no effect). Ratings of 1 to 4 (in particular 1 to 3) mean good to very good herbicidal action.

Row | Structure (SMILES) | Post-emergence action rating, Abutilon [1] | Post-emergence action rating, Amaranth [1] | Post-emergence action rating, Chenop. [1] | Post-emergence action rating, Digitaria [1] | Post-emergence action rating, Echino. [1] | Post-emergence action rating, Ipopur. [1] | Post-emergence action rating, Panicum [1] | Post-emergence action rating, Xanth. [1] | Pre-emergence action rating, Abutilon [2] | Pre-emergence action rating, Amaranthus [2] | Pre-emergence action rating, Chenop. [2] | Pre-emergence action rating, Digitaria [2] | Pre-emergence action rating, Echino. [2] | Pre-emergence action rating, Panicum [2]
1 | CCN(CC)CC.COCCOCc1nc(C(F)(F)F)ccc1C(=O)C1=C(O)C2CCC(C2)C1=O (centres unmarked) [A10-B52 (Et3NH+)] | 2 | 2 | 1 | 2 | 2 | 2 | 2 | 2 | 1 | 1 | 1 | 1 | 2 | 1
2 | COCCOCc1nc(C(F)(F)F)ccc1C(=O)C1=C(O)C2CCC(C2)C1=O (centres unmarked) [A10-B52, (H3), 4-Hydroxy-3-[2-(2-methoxyethoxymethyl)-6-trifluoromethylpyridine-3-carbonyl]-bicyclo[3.2.1]oct-3-en-2-one] | 1 | 2 | 1 | 1 | 2 | 2 | 1 | 2 | 1 | 1 | 1 | 1 | 1 | 1
3 | COCCOCc1nc(C(F)(F)F)ccc1C(=O)C1=C(O)CC(C)CC1=O (centres unmarked) [A10-B111] | 3 | 2 | 1 | 2 | 3 | 3 | 2 | 3 | 1 | 1 | – | 1 | 1 | 1
4 | COCCOCc1nc(C(F)(F)F)ccc1C(=O)c1c(C)nn(C)c1O [A10-C2 (H6), (5-Hydroxy-1,3-dimethyl-1H-pyrazol-4-yl)-[2-(2-methoxyethoxymethyl)-6-trifluoromethylpyridin-3-yl]methanone] | 2 | 1 | 1 | 4 | 3 | 3 | 2 | 1 | 1 | 2 | 1 | 3 | 3 | 3
5 | COCCOCc1nc(C(F)(F)F)ccc1C(=O)c1cnn(C)c1O [A10-C5] | 2 | 1 | 1 | 2 | 2 | 2 | 2 | 2 | 1 | 1 | 1 | 3 | 1 | 2
6 | COCCOCc1nc(C(F)(F)F)ccc1C(=O)c1cnn(C)c1OS(C)(=O)=O [A10-C28] | 3 | 2 | 1 | 4 | 4 | 3 | 4 | 3 | 1 | 1 | 1 | 3 | 2 | 1
